Data as given in patent publication US8901118B2, “Compounds and methods for kinase modulation, and indications therefor” (Plexxikon Inc., priority 2010, dated 2014).
pIC50: −log10 of the molar value. Values belong to the molecule of their own block, whether it stands above or below them.

How the values were obtained:
TrkC kinase = TrkC kinase (Homo sapiens, UniProt Q16288); assay: TrkC kinase biochemical activity assay (similar to TrkA assay); conditions: read-out: Biochemical Inhibition IC50 TrkC
Chain of TrkC kinase (Q16288 32-839): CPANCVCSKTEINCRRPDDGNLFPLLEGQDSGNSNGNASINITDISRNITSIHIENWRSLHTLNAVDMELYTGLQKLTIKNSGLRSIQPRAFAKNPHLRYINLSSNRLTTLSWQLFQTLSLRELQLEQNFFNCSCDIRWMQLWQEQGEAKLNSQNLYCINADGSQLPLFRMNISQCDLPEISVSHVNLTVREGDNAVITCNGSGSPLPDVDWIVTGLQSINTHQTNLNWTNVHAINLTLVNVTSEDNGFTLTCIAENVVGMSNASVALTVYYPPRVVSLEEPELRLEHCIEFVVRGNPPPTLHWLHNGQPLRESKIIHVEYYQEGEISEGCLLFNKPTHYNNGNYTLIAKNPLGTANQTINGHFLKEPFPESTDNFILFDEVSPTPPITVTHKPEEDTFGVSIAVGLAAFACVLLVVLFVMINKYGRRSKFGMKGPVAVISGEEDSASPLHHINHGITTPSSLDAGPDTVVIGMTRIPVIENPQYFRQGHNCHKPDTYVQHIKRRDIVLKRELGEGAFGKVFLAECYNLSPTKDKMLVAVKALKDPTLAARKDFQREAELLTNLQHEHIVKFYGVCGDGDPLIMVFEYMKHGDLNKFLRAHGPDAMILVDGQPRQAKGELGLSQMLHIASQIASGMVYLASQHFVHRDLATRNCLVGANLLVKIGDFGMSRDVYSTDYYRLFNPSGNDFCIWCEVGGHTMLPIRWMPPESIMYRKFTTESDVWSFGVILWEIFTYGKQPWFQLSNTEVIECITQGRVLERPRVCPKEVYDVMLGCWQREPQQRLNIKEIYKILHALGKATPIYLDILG
Experimental: In one assay the biochemical activity IC50 values are determined with respect to inhibition of TrkA kinase activity, where inhibition of phosphorylation of a peptide substrate is measured as a function of compound concentration. Compounds to be tested, dissolved in DMSO (1 μL), are added to a white 384-well plate (Costar #3705). Working stocks of TrkA kinase (UBI), biotin-(E4Y)10 substrate (Upstate Biotech, Cat#12-440), and ATP (Sigma, Cat#A-3377) are prepared in 25 mM Hepes pH 7.5, 10 mM MnCl2, 1 mM DTT, 0.01% BSA, and 0.01% Tween-20. All components are added to the 384-well plate for a final concentration of 1 ng/well TrkA, 30 nM biotin-(E4Y)10 and 100 μM ATP in a volume of 20 μL. Each sample is at 5% DMSO. The plate is shaken for 1 minute at 1200 rpm, spun for 1 minute at 1000 rpm, then incubated for 40 minutes at room temperature. Just before use, working stocks of donor and acceptor beads from the AlphaScreen PY20 Detection Kit (PerkinElmer, Cat#676601M) are prepared in 25 mM Hepes pH 7.5, 100 mM EDTA. 0.01% BSA. Donor Beads solution (Streptavidin beads) is added (5 μL) to each well to final bead concentration of 10 μg/mL. The plate is incubated at room temperature for 20 minutes. Acceptor Beads solution (PY20 coated beads) are then added to each well (5 μL) to a final concentration of bead at 10 μg/mL. The plates are incubated at room temperature for 60 minutes. Fluorescence signal is recorded on the Envision reader. Phosphorylated substrate results in binding of the PY20 antibody and association of the donor and acceptor beads such that signal correlates with kinase activity. The signal vs. compound concentration is used to determine the IC50. Similar assays are used for TrkB and Trk C kinase.

BCR-FMS BaF3 cells = assay: Splenomegaly mouse model, BCR-FMS BaF3 cells; assay type: in vivo; conditions: dosed once per day at 10 mg per kg
Experimental: BaF3 cells are engineered with any of BCR-FMS, BCR-TRK1 or BCR-TRK2 to assess in vivo inhibitory effects of Fms, TrkA or TrkB inhibition, respectively. BaF3 cells are maintained in growth media (RPMI containing 10% FBS, 1% PenStrep, 1% NEAA, and 1% L-Glutamine, supplemented with 5% murine IL-3 and 1 mg/mL G418). Four days prior to start, 2×10^6 cells are inoculated into a T150 vented flask using the growth media and incubated at 37° C. in 5% CO2 for three days. One day prior to start, cells are collected by centrifugation and are suspended in growth media without IL-3. On the day of cell implant, the cells are collected by centrifugation, rinsed 3×20 mL with RPMI, then are suspended in 5.4 mL of media and counted, then adjusted with additional RPMI as needed to give 5×10^7 cells/mL. On day 1, female nu/nu mice at 5-6 weeks of age are injected intravenously with BaF3 cells injected injecting 0.1 mL (5×10^6) cells in the tail vein (mice without cell injected are included as control group). Compound stocks in dimethylsulfoxide are stored at room temperature protected from light. Stocks are diluted prior to dosing, diluting 22 μL of compound stock into 858 μL of diluent (or 50 μL into 1950 μL) to provide vehicle of 1.0% Polysorbate 80, 0.5% hydroxypropyl methyl cellulose, with final dimethylsulfoxide at 2.5% in all dosing suspensions and vehicle control. Dosing suspension is prepared prior to use, mixing by inversion and sonication in a water bath to make a uniform suspension. On days 10-18, mice are treated with vehicle only or the desired level of compound in vehicle, ˜0.2 mL per 25 gm mouse, once a day by oral gavage, or in some instances, twice per day. On day 18, mice are administered a final dose and two hours later a plasma sample is taken. At four hours following the final dose, mice are sacrificed, an additional plasma sample is collected and mouse spleens are removed and weighed. The average spleen weight of vehicle control group mice is compared to the average spleen weight of the test compound mice. Percent spleen growth inhibition is calculated as 100×[(spleen weight vehicle control-spleen weight test compound)/spleen weight vehicle control]. In some instances, the compounds were not tested in all of the assays as indicated by NA in the table below.

[1] = Relative solubility by turbidity in aqueous buffers (pH 1.5, 4.5, 6.8, 7.4); assay type: physicochemical; conditions: for turbidity threshold (L, M, H) 1.4: pH 1.5 (SGF); for turbidity threshold (L, M, H) 4.5: pH 4.5 (SIF); for turbidity threshold (L, M, H) 6.8: pH 6.8 (SIF); for turbidity threshold (L, M, H) 7.4: pH 7.4 (HEPES)
Procedure, shortened: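 Reported value: concentration at which optical density at 490, 535 and 650 nm passes 0.01, taken as the mean of the three wavelengths. Buffers were 0.5M NaCl pH 1.5, 0.05M NaH2PO4 pH 4.5 or 6.8, and 10 mM HEPES/150 mM NaCl pH 7.4, each receiving serial 1:1 DMSO dilutions of a 25 mM stock.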

- pIC50 (TrkC kinase): > 8.00
SMILES: Cc1cnc2[nH]cc(Cc3cnc(Nc4ccc(C(C)(C)C)cc4)nc3)c2c1 [Compound P-3030, (4-tert-Butyl-phenyl)-[5-(5-methyl-1H-pyrrolo[2,3-b]pyridin-3-ylmethyl)-pyrimidin-2-yl]-amine amine]

- pIC50 (TrkC kinase): > 6.00
SMILES: COc1ccc(Nc2ncc(Cc3c[nH]c4ncc(C)cc34)cn2)cc1 [Compound P-3021, (4-Methoxy-phenyl)-[5-(5-methyl-1H-pyrrolo[2,3-b]pyridin-3-ylmethyl)-pyrimidin-2-yl]-amine]

- pIC50 (TrkC kinase): > 6.00
SMILES: COc1ccc(Nc2ncc(Cc3c[nH]c4ncc(C)cc34)cn2)cn1 [Compound P-3020, (6-Methoxy-pyridin-3-yl)-[5-(5-methyl-1H-pyrrolo[2,3-b]pyridin-3-ylmethyl)-pyrimidin-2-yl]-amine]

- pIC50 (TrkC kinase): < 6.00
SMILES: CCCOc1ccc(Nc2ncc(Cc3c[nH]c4ncc(C)cc34)cn2)cc1 [Compound P-3024, [5-(5-Methyl-1H-pyrrolo[2,3-b]pyridin-3-ylmethyl)-pyrimidin-2-yl]-(4-propoxy-phenyl)-amine]

- pIC50 (TrkC kinase): > 6.00
SMILES: CCn1ccc(Nc2ncc(Cc3c[nH]c4ncc(C)cc34)cn2)n1 [Compound P-3035, (1-Ethyl-1H-pyrazol-3-yl)-[5-(5-methyl-1H-pyrrolo[2,3-b]pyridin-3-ylmethyl)-pyrimidin-2-yl]-amine]

- pIC50 (TrkC kinase): > 6.00
SMILES: Cc1cnc2[nH]cc(Cc3cnc(Nc4ccc(S(C)(=O)=O)cc4)nc3)c2c1 [Compound P-3034, (4-Methanesulfonyl-phenyl)-[5-(5-methyl-1H-pyrrolo[2,3-b]pyridin-3-ylmethyl)-pyrimidin-2-yl]-amine]

- pIC50 (TrkC kinase): > 6.00
SMILES: CCn1cc(Nc2ncc(Cc3c[nH]c4ncc(C)cc34)cn2)cn1 [Compound P-3036, (1-Ethyl-1H-pyrazol-4-yl)-[5-(5-methyl-1H-pyrrolo[2,3-b]pyridin-3-ylmethyl)-pyrimidin-2-yl]-amine]

- pIC50 (TrkC kinase): > 6.00
SMILES: Cc1cnc2[nH]cc(Cc3cnc(Nc4cc(C(C)(C)C)n[nH]4)nc3)c2c1 [Compound P-3029, (5-tert-Butyl-2H-pyrazol-3-yl)-[5-(5-methyl-1H-pyrrolo[2,3-b]pyridin-3-ylmethyl)-pyrimidin-2-yl]-amine]

- pIC50 (TrkC kinase): > 7.00
SMILES: Cc1cnc2[nH]cc(Cc3cnc(Nc4cc(-c5ccc(F)cc5)n[nH]4)nc3)c2c1 [Compound P-3028, [5-(4-Fluoro-phenyl)-2H-pyrazol-3-yl]-[5-(5-methyl-1H-pyrrolo[2,3-b]pyridin-3-ylmethyl)-pyrimidin-2-yl]-amine]

- pIC50 (TrkC kinase): > 7.00
SMILES: CSc1ccc(Nc2ncc(Cc3c[nH]c4ncc(C)cc34)cn2)cc1 [Compound P-3033, [5-(5-Methyl-1H-pyrrolo[2,3-b]pyridin-3-ylmethyl)-pyrimidin-2-yl]-(4-methylsulfanyl-phenyl)-amine]

SMILES: CCOc1ncnc2[nH]cc(Cc3ccc(Nc4cnn(CC)c4)nc3F)c12 [Compound P-4012, [5-(4-Ethoxy-7H-pyrrolo[2,3-d]pyrimidin-5-ylmethyl)-6-fluoro-pyridin-2-yl]-(1-ethyl-1H-pyrazol-4-yl)-amine]
- % spleen growth inhibition, Fms (BCR-FMS BaF3 cells): 24%
- turbidity threshold (L, M, H) 1.4 [1]: M (moderate solubility if the threshold concentration is 31.3 μM to 250 μM)
- turbidity threshold (L, M, H) 4.5 [1]: L (low solubility if the threshold concentration is <31.3 μM)
- turbidity threshold (L, M, H) 6.8 [1]: L (low solubility if the threshold concentration is <31.3 μM)
- turbidity threshold (L, M, H) 7.4 [1]: L (low solubility if the threshold concentration is <31.3 μM)

SMILES: CCOc1ccc(Nc2ccc(C(=O)c3c[nH]c4ncc(C)cc34)c(F)n2)cn1 [Compound P-3045, [6-(6-ethoxy-pyridin-3-ylamino)-2-fluoro-pyridin-3-yl]-(5-methyl-1H-pyrrolo[2,3-b]pyridin-3-yl)-methanone]
- % spleen growth inhibition, Fms (BCR-FMS BaF3 cells): 11%
- turbidity threshold (L, M, H) 1.4 [1]: M (moderate solubility if the threshold concentration is 31.3 μM to 250 μM)
- turbidity threshold (L, M, H) 4.5 [1]: M (moderate solubility if the threshold concentration is 31.3 μM to 250 μM)
- turbidity threshold (L, M, H) 6.8 [1]: M (moderate solubility if the threshold concentration is 31.3 μM to 250 μM)
- turbidity threshold (L, M, H) 7.4 [1]: L (low solubility if the threshold concentration is <31.3 μM)

SMILES: Fc1nc(NC2CCC(F)(F)CC2)ccc1Cc1c[nH]c2ncnc(NCC(F)(F)F)c12 [Compound P-4128, 5-[[6-[(4,4-difluorocyclohexyl)amino]-2-fluoro-3-pyridyl]methyl]-N-(2,2,2-trifluoroethyl)-7H-pyrrolo[2,3-d]pyrimidin-4-amine]
- % spleen growth inhibition, Fms (BCR-FMS BaF3 cells): 15%
- turbidity threshold (L, M, H) 1.4 [1]: H (high solubility if the threshold concentration is >250 μm)
- turbidity threshold (L, M, H) 4.5 [1]: M (moderate solubility if the threshold concentration is 31.3 μM to 250 μM)
- turbidity threshold (L, M, H) 6.8 [1]: M (moderate solubility if the threshold concentration is 31.3 μM to 250 μM)
- turbidity threshold (L, M, H) 7.4 [1]: M (moderate solubility if the threshold concentration is 31.3 μM to 250 μM)

- pIC50 (TrkC kinase): > 8.00
SMILES: CCc1ccc(Nc2ncc(Cc3c[nH]c4ncc(C)cc34)cn2)cc1 [Compound P-3025, (4-Ethyl-phenyl)-[5-(5-methyl-1H-pyrrolo[2,3-b]pyridin-3-ylmethyl)-pyrimidin-2-yl]-amine]

- pIC50 (TrkC kinase): > 7.00
SMILES: Cc1cnc2[nH]cc(Cc3cnc(Nc4ccc(C(O)(C(F)(F)F)C(F)(F)F)cc4)nc3)c2c1 [Compound P-3031, 1,1,1,3,3,3-Hexafluoro-2-{4-[5-(5-methyl-1H-pyrrolo[2,3-b]pyridin-3-ylmethyl)-pyrimidin-2-ylamino]-phenyl}-propan-2-ol]

- pIC50 (TrkC kinase): > 6.00
SMILES: COc1cc(Nc2ncc(Cc3c[nH]c4ncc(C)cc34)cn2)ccc1F [Compound P-3022, (4-Fluoro-3-methoxy-phenyl)-[5-(5-methyl-1H-pyrrolo[2,3-b]pyridin-3-ylmethyl)-pyrimidin-2-yl]-amine]

- pIC50 (TrkC kinase): > 7.00
SMILES: CCOc1ccc(Nc2ncc(Cc3c[nH]c4ncc(C)cc34)cn2)cc1 [Compound P-3026, (4-Ethoxy-phenyl)-[5-(5-methyl-1H-pyrrolo[2,3-b]pyridin-3-ylmethyl)-pyrimidin-2-yl]-amine]

- pIC50 (TrkC kinase): < 6.00
SMILES: Cc1cnc2[nH]cc(Cc3cnc(Nc4cc(C5CC5)n[nH]4)nc3)c2c1 [Compound P-3032, (5-Cyclopropyl-2H-pyrazol-3-yl)-[5-(5-methyl-1H-pyrrolo[2,3-b]pyridin-3-ylmethyl)-pyrimidin-2-yl]-amine]

SMILES: FC1(F)CCC(Nc2ncc(Cc3c[nH]c4ncc(Cl)cc34)cn2)CC1 [Compound P-3004]
- % spleen growth inhibition, Fms (BCR-FMS BaF3 cells): 43%
- turbidity threshold (L, M, H) 1.4 [1]: H (high solubility if the threshold concentration is >250 μm)
- turbidity threshold (L, M, H) 4.5 [1]: L (low solubility if the threshold concentration is <31.3 μM)
- turbidity threshold (L, M, H) 6.8 [1]: L (low solubility if the threshold concentration is <31.3 μM)
- turbidity threshold (L, M, H) 7.4 [1]: L (low solubility if the threshold concentration is <31.3 μM)
